Source: patent US10105384B2, “Nucleic acids targeting TCTP for use in the treatment of chemo- or hormone-resistant cancers” (INSTITUT NATIONAL DE LA SANTE ET DE LA RECHERCHE MEDICALE …, priority 2010, dated 2018)
d = 2'-deoxy (DNA); r = 2'-OH (RNA)

What was measured:
Type in all cases: cell-based, human
[1] = tested on: caspase-3; assay: Caspase-3 cleavage by western blot in PC-3 cells; conditions: not in control treated cells
Experimental: Western Blot analysis was performed as described previously (Rocchi et al., 2004, Cancer Res. 64:6595-602) with 1:5000 rabbit anti-Hsp27 polyclonal antibody (Assay Designs, Villeurbanne, France), 1:2000 rabbit TCTP polyclonal antibody (Abcam Inc., Cambridge, UK), 1:250 rabbit anti-MSL1v1 polyclonal antibody (Abcam Inc.), 1:500 mouse anti-ubiquitin monoclonal antibody (Santa Cruz Biotechnology Inc., Heidelberg, Germany) or 1:1000 rabbit anti-caspase-3 polyclonal antibody (Cell Signalling Technology Inc., Danvers, USA). Loading levels were normalized using 1:5000 rabbit anti-glyceraldehyde-3-phosphate dehydrogenase polyclonal (Abcam Inc.) or 1:2500 mouse anti-vinculine monoclonal antibodies (Sigma Chemical Co., St Louis, Mo., USA).
Flow cytometry was used to quantify the percentage of cells in each cell cycle phase three days after the siRNA treatment. After the treatment of PC-3 cells with 5 nM TCTP siRNA for 1 day, the fraction of cells undergoing apoptosis (sub-G1/G0 fraction) was 25% higher after treatment with 5 nM TCTP siRNA compared with scrambled control siRNA (**, P≤0.01; FIG. 6, upper panel). Using TCTP ASO treatment alone, we found an increase of 75% in sub-G0G1 fraction (***, P≤0.001; FIG. 6, middle and bottom panel), enhanced by the 50 nM docetaxel treatment (90% in sub-G0-G1 fraction, ***, P≤0.001). […]

[2] = tested on: PC-3 cells; assay: Flow cytometry of propidium iodide-stained nuclei (apoptosis, cell cycle), PC-3 cells
Experimental: Flow cytometry of propidium iodide-stained nuclei was performed as described previously (Rocchi et al., 2004, Cancer Res. 64:6595-602). In brief, PC-3 cells were plated at the density of 10^6 cells into 10 cm dishes in DMEM supplemented with 10% FCS. To assess the effect of TCTP inhibition on apoptosis and cell cycle, cells were treated the day after seeding with 5 nM of siRNA TCTP or control and 100 nM of ASO TCTP or scrambled control for 48 h. Cells were then treated with 50 nM of docetaxel. After 24 h, the cells were analyzed for relative DNA content on a dual laser flow cytometer (FACSCalibur, Becton Dickinson Biosciences, Le Pont de Claix, France). Each assay was performed in triplicate.
(§1) Flow cytometry was used to quantify the percentage of cells in each cell cycle phase three days after the siRNA treatment. After the treatment of PC-3 cells with 5 nM TCTP siRNA for 1 day, the fraction of cells undergoing apoptosis (sub-G1/G0 fraction) was 25% higher after treatment with 5 nM TCTP siRNA compared with scrambled control siRNA (**, P≤0.01; FIG. 6, upper panel). Using TCTP ASO treatment alone, we found an increase of 75% in sub-G0G1 fraction (***, P≤0.001; FIG. 6, middle and bottom panel), enhanced by the 50 nM docetaxel treatment (90% in sub-G0-G1 fraction, ***, P≤0.001). […] The fraction of PC-3 in S phase was 20 to 40% lower after TCTP siRNA or ASO treatments respectively compared to the scrambled controls (FIG. 6). […] The rate of apoptotic PC-3 cells after TCTP silencing with different ASO concentrations was explored with the Invitrogen countess (FIG. 6 and FIG. 7A). PC-3 cells were treated with 70, 100 or 200 nM of TCTP ASO or control. Cells were harvested 3 days after treatment and […] of trypan blue was added before analysis with Invitrogen Countess. […] Moreover, TCTP has been reported to interact with caspase-3, thereby inhibiting caspase-3 activation (Gnanasekar et al., 2009, Int J Oncol. 34:1241-6). In order to investigate the effect of TCTP silencing on caspase-3 cleavage and activity, PC-3 cells were treated daily with 100 nM TCTP or scrambled ASO for 2 days. Cells were harvested 2 days after and proteins were extracted for western blotting with a caspase-3 antibody that recognizes both full-length and cleaved caspase-3.
(§2) PC3 cells were transfected with a TCTP siRNA of SEQ ID NO: 3. Cell proliferation and apoptosis were studied using respectively MTT (3-(4,5-dimethylthiazol-2-yl)-2,5-diphenyl tetrazolium bromure) assay and flow cytometry.
(§3) PC3 cells were transfected with a TCTP ASO of SEQ ID NO: 2. Cell proliferation and apoptosis were studied using respectively MTT assay and flow cytometry.

[3] = tested on: TCTP; assay: TCTP mRNA and protein expression tests in LNCaP and PC3 cells
Experimental: TCTP mRNA and protein expression tests were carried out in LNCaP and PC3 cells exposed to a TCTP ASO of SEQ ID NO: 2 or a TCTP siRNA of SEQ ID NO: 3.

[4] = tested on: PC-3 cells; assay: MTT cell growth assay, PC-3 cells; conditions: for enhancement of docetaxel sensitivity: PC-3 cells, 50 nM docetaxel 24 h, MTT
Experimental: In brief, cells were seeded in each well of 12-well microtiter plates (30 000 to 50 000 cells per well) and allowed to attach overnight. To study the effect of TCTP downregulation on apoptosis induced by docetaxel, PC-3 cells were transiently transfected the day after seeding with 5 nM of TCTP siRNA for 48 h or 100 nM of TCTP ASO for 72 h. Cells were then treated with 50 nM of docetaxel and MTT assays were performed after 24 h. To assess the effect of TCTP downregulation on Hsp27 cytoprotection, LNCaP-Mock and -Hsp27 cells were transiently transfected the day after seeding with 5 nM of TCTP siRNA for 48 h. The down- or upregulation of TCTP effect on LNCaP and C4-2 cell viability was realized after transient transfections with 100 nM of TCTP ASO or 0.02 μg/μl of pDEST-TCTP for 72 h and 48 h respectively. Cells were then treated with 1 nM of docetaxel in serum-free media (mimics androgen withdrawal in vitro) and crystal violet assays were performed the day after. Each assay was performed in triplicate.
To assess the effect of TCTP down-regulation on CR cell growth, PC-3 cells were treated for 1 day with 5 nM TCTP siRNA or for 2 days with 100 nM TCTP ASO. At the end of the treatment, PC-3 cells were incubated with 50 nM of docetaxel. Growth rates of PC-3 cells were examined using the 3-(4,5-dimethylthiazol-2-yl)-2,5-diphenyltetrazolium bromide assay. […] The effect of the inhibition of TCTP on cell survival was analyzed in PC-3 after combined ASO and docetaxel-chemotherapy treatment. After 24 h of treatment with 50 nM of docetaxel, cell viability was determined using a MTT assay. The experiment was repeated in triplicate. *** differs from PC-3 transfected with control-siRNA (P50.001) using Statview software. […] The same effect has been observed with TCTP siRNA (SEQ ID NO: 3) and 5′-[…]-3′ (SEQ ID NO: 14) and 5′-[…]-3′ (SEQ ID NO: 15) ASOs.
as §2, §3

[5] = tested on: PC-3 cells; assay: Viability assay by Invitrogen Countess (trypan blue), PC-3 cells
Experimental: PC-3 cells were treated with 70, 100 or 200 nM of TCTP ASO or control. 3 days after, the cells were harvested, combined with 10 μl of trypan blue and counted with Invitrogen Countess. Viability, cell concentration and size were recorded for each sample following the manufacturer's instructions.
as §1

Row | Substance | active cleaved caspase-3 fragments (17-20 kDa) [1] | fraction of cells undergoing apoptosis (sub-G1/G0 fraction) higher than scrambled control siRNA ([2]; PC-3, 5 nM siRNA for 1 day) | increase of the percentage of apoptotic cells ([2]; TCTP siRNA, PC3, flow cytometry (summary, FIG. 12)) | fraction of PC-3 in S phase lower than scrambled control ([2]; siRNA treatment) | expression of TCTP (mRNA and protein) [3] | reduction in PC-3 cell growth ([4]; 5 nM siRNA alone, 4 days after treatment, compared to scrambled control) | enhancement of docetaxel sensitivity [4] | decrease of proliferation of PC3 cells ([4]; TCTP siRNA, MTT assay (summary, FIG. 12)) | rate of apoptotic cells ([5]; PC-3, TCTP siRNA) | fraction of PC-3 in S phase lower than scrambled control ([2]; ASO treatment) | increase in sub-G0-G1 fraction ([2]; PC-3, TCTP ASO plus 50 nM docetaxel) | increase in sub-G0G1 fraction ([2]; PC-3, TCTP ASO treatment alone) | increase of the percentage of apoptotic cells ([2]; TCTP ASO, PC3, flow cytometry (summary, FIG. 13)) | decrease of proliferation of PC3 cells ([4]; TCTP ASO, MTT assay (summary, FIG. 13)) | rate of apoptotic cells ([5]; PC-3, 70 nM ASO, three days after transfection) | rate of apoptotic cells ([5]; PC-3, 100 nM ASO, three days after transfection) | rate of apoptotic cells ([5]; PC-3, 200 nM ASO, three days after transfection)
1 | 5′-AACCCGUCCGCGAUCUCCCdGdG-3′ (AACCCGUCCGCGAUCUCCCGG; siRNA; sugars from the 5' end r19 d2, backbone not given here) [TCTP siRNA, from Qiagen] | presence of active cleaved caspase-3 fragments | 25% | 25.8% | 20% | decreases in a significant manner | 55% | same effect | 48.1% | Same effects |  |  |  |  |  |  |  | 
2 | 5′-ACCAATGAGCGAGTCATCAA-3′ (phosphorothioate backbone, further chemistry not given here) [ASO10] | presence of active cleaved caspase-3 fragments |  |  |  | decreases in a significant manner |  | up to 25% |  |  | 40% | 90% | 75% | 70% | 58% | 100% | 200% | 300%
